Values of other authors in patent publication US9616027B2, “Pramipexole sustained release tablet formulation and manufacturing method thereof and use thereof” (SHIJIAZHUANG RAPISTEP PHARMACEUTICAL TECHNOLOGY R&D INC., priority 2013, dated 2017).
Where two headings read alike, the source gives them in different places.

Experiments:
[1] = not given; remark: listed apart in the source
[2] = test system: patients with advanced Parkinson's disease; details: with levodopa
[3] = in vivo

crystal modification (monohydrate) under grinding (grinding): does not change under grinding
stability in the solid state (solid state): very stable
stability of solution to light (solution): light sensitive
solubility in a pH 2 to pH 7.4 buffer media ([1]; pH 2 to pH 7.4 buffer media): higher than 10 mg/ml
Water-solubility ([1]; water): greater than 20 mg/ml
effect of food intake on absorption [3]: Food intake shall influence absorption
kinetic characteristics [3]: linear kinetic characteristics
Compound: CCCN[C@H]1CCc2nc(N)sc2C1 [Pramipexole, (S)-2-Amino-4,5,6,7-tetrahydro-6-(propylamino) benzothiazole]
UPDRS score ([2]; 0.375 mg increased to 4.5 mg, 18 weeks of treatment): −11.0
regulation change of the "off" state ([2]; 18 weeks of treatment): -2.1 h
UPDRS score ([2]; 33 weeks of treatment): −11.1
